According to article PMC9675574 (JCI Insight, 2022):
Where two headings read alike, the source gives them in different places.

Key:
Format in all cases: biochemical
[1] = target: mouse trypsin isoform T7 (cationic trypsin) (Mus musculus, UniProt Q9CPN9); details: GPR-pNA, 24°C
Experimental: (§1) Recombinant human and mouse trypsinogens were expressed in Escherichia coli BL21(DE3) (Invitrogen), refolded in vitro, and purified by ecotin affinity chromatography (Pharmacia FPLC), according to published protocols ([60], [63], [64]). Sulfated human trypsinogens were purified from archived samples of human pancreatic juice, as described previously, with minor modifications ([65], [66]). Briefly, 50 mg freeze-dried pancreatic juice was dissolved in 2 mL 10 mM HCl, clarified by centrifugation (21,000g, 5 minutes, 4°C), and loaded onto a MonoQ 5/50 GL column equilibrated with 20 mM Tris-HCl (pH 8.0). Proteins were eluted with a 0–0.5 M NaCl gradient at 1 mL/min flow rate for 30 minutes. The fractions containing the cationic and anionic trypsinogens were further purified with ecotin affinity chromatography. The concentration of trypsinogen preparations was estimated from their UV absorbance at 280 nm using the extinction coefficients reported previously for mouse trypsinogens ([64]) and 37,525, 38,890, and 41,535/M/cm for human cationic trypsinogen (PRSS1), anionic trypsinogen (PRSS2), and mesotrypsinogen (PRSS3), respectively. To activate trypsinogen to trypsin, approximately 1 μM solution was incubated at 37°C with 28.2 ng/mL human enterokinase (final concentration) in 0.1 M Tris-HCl (pH 8.0), 10 mM CaCl2, and 0.05% Tween 20 for 1 hour. The activation reaction was followed by measuring trypsin activity: 2 μL trypsin was diluted in 48 μL assay buffer [0.1 M Tris-HCl (pH 8.0), 1 mM CaCl2, and 0.05% Tween 20], and 150 μL of 200 μM GPR-pNA trypsin substrate (in assay buffer) was added. Substrate cleavage resulting in the release of the yellow p-nitroaniline was monitored for 1 minute in a Spectramax Plus 384 microplate reader at 405 nm.
(§2) Michaelis-Menten kinetic parameters of trypsin isoforms were determined with the chromogenic substrate GPR-pNA at 24°C. The trypsin concentration was 1 nM and the substrate concentration was varied typically between 1.56 and 200 μM in a final volume of 200 μL assay buffer. The substrate concentration range was 3.1–400 μM for mouse trypsin isoform T7 and 0.4–50 μM for mouse trypsin isoform T20. Km and kcat values were calculated from hyperbolic fits to plots of reaction velocity versus substrate concentration.
(§3) Michaelis-Menten kinetic parameters were then measured after adding 100 μL trypsin substrate, as described above. […] To determine the Ki, the Km values were plotted as a function of the inhibitor concentration, and the Ki was calculated by dividing the y axis intercept with the slope of the linear fit. This value corresponds to the negative of the x axis intercept. Alternatively, the substrate saturation curves obtained in the absence and presence of the increasing inhibitor concentrations were globally fitted to the competitive inhibition equation y = vmax × (x/[KmObs+ x]), where y is the reaction velocity, vmax is the maximal velocity, x is the substrate concentration, and KmObs = Km × (1 + [I]/Ki), where [I] is the inhibitor concentration. Experiments were performed 3 times and each experiment was analyzed separately. […] Kinetic analysis was performed with the Prism 8 program (GraphPad).

[2] = target: T1, bovine trypsin (Bos taurus, UniProt P00760); test: Competitive inhibition kinetics of trypsin, GPR-pNA substrate; details: 24°C
T1 construct: purchased Worthington Biochemical Corporation LS003707
T1 sequence (P00760 24-246): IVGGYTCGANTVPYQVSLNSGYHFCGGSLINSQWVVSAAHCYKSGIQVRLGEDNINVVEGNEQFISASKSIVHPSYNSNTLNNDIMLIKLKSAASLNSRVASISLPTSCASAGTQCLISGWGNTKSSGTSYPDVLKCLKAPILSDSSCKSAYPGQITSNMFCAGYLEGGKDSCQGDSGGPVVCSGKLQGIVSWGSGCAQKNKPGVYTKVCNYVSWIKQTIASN
Experimental: Bovine trypsin (catalog number LS003707) was purchased from Worthington Biochemical Corporation and was active-site titrated with p-nitrophenyl p’-guanidino-benzoate (catalog number N-8010, MilliporeSigma) ([59]). Ecotin was produced and purified as reported previously ([60]). The concentration of ecotin was determined by titration against active-site titrated bovine trypsin. Recombinant human pro-enterokinase (catalog number 1585-SE-010) was purchased from R&D Systems and was activated with human cationic trypsin. The trypsin substrate GPR-pNA (catalog number 4000768.0100) was purchased from Bachem Americas. […] Michaelis-Menten kinetic parameters of trypsin isoforms were determined with the chromogenic substrate GPR-pNA at 24°C. […] Km and kcat values were calculated from hyperbolic fits to plots of reaction velocity versus substrate concentration. […] To determine the Ki, the Km values were plotted as a function of the inhibitor concentration, and the Ki was calculated by dividing the y axis intercept with the slope of the linear fit. This value corresponds to the negative of the x axis intercept. […] Experiments were performed 3 times and each experiment was analyzed separately. […] Kinetic analysis was performed with the Prism 8 program (GraphPad).

[3] = target: human and mouse trypsin isoforms; test: Ki ranges over the panel of trypsin isoforms
Experimental: Michaelis-Menten kinetic parameters of trypsin isoforms were determined with the chromogenic substrate GPR-pNA at 24°C. […] Km and kcat values were calculated from hyperbolic fits to plots of reaction velocity versus substrate concentration. […] To determine the Ki, the Km values were plotted as a function of the inhibitor concentration, and the Ki was calculated by dividing the y axis intercept with the slope of the linear fit. This value corresponds to the negative of the x axis intercept. […] Experiments were performed 3 times and each experiment was analyzed separately. […] Kinetic analysis was performed with the Prism 8 program (GraphPad).

[4] = target: mouse trypsin isoform T8 (anionic trypsin) (Mus musculus, UniProt Q9R0T7); test: biochemical; details: for kcat / Km: GPR-pNA, 24°C
Sequence of mouse trypsin isoform T8 (anionic trypsin) (Q9R0T7 24-246): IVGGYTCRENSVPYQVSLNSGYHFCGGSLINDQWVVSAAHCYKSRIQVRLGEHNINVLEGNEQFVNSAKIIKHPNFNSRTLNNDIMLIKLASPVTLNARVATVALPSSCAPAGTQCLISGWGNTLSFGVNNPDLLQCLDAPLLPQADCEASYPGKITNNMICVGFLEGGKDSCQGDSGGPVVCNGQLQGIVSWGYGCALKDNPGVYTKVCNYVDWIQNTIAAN
Experimental: as §1, §2, §3

[5] = target: mouse trypsin isoform T9 (anionic trypsin) (Mus musculus, UniProt Q9QUK9); test: biochemical; details: for kcat / Km: GPR-pNA, 24°C; for Ki: mean ± SD, n = 3
Sequence of mouse trypsin isoform T9 (anionic trypsin) (Q9QUK9 24-246): as the sequence (Q9R0T7 24-246) above, with V12I, S44T, N218D counted along it
Experimental: as §1, §2, §3

[6] = range over trypsin isoforms tested, read-out: Ki range, individual fit analysis

Sequence of mouse trypsin isoform T7 (cationic trypsin) (Q9CPN9 entry or part of it): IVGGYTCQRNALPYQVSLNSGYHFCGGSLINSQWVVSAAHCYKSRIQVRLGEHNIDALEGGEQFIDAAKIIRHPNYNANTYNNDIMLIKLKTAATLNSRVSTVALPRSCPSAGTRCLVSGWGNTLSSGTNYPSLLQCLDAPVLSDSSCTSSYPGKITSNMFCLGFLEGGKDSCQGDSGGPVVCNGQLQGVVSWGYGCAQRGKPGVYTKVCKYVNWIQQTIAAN

N=C(N)c1ccccc1 [benzamidine] was tested, and the kcat ([1]; 12.5 μM benzamidine) was 125.4 ± 2.7 per second, the kcat ([1]; 25 μM benzamidine) was 125.5 ± 3.5 per second and the kcat ([1]; 37.5 μM benzamidine) was 135 ± 3.9 per second. The kcat ([1]; 50 μM benzamidine) was 127.9 ± 7.5 per second, the kcat ([2]; 25 μM benzamidine) was 109 ± 9.5 per second and the kcat ([2]; 50 μM benzamidine) was 115.8 ± .9 per second. It also gave a Ki [3, 6] of 3300 to 20600 nM, a kcat ([4]; 12.5 μM benzamidine) of 103.9 ± 7.9 per second and a kcat ([4]; 25 μM benzamidine) of 105.6 ± 4.9 per second. The kcat ([4]; 37.5 μM benzamidine) was 100.2 ± 0.8 per second, the kcat ([4]; 50 μM benzamidine) was 105.5 ± 7 per second and the Ki ([4]; mean ± SD, n = 3) was 6700 ± 1300 nM. The kcat ([5]; 12.5 μM benzamidine) was 110 ± 3.4 per second, the kcat ([5]; 25 μM benzamidine) was 111.4 ± 2.8 per second and the kcat ([5]; 37.5 μM benzamidine) was 114.8 ± 2.8 per second. The kcat ([5]; 50 μM benzamidine) was 112.3 ± 4.5 per second and the Ki [5] was 6800 ± 1000 nM.

[H]/N=C(/N)c1ccc(NCc2nc3cc(C(=O)N(CCC(=O)O)c4ccccn4)ccc3n2C)cc1 [dabigatran] gave a kcat ([1]; 100 nM dabigatran) of 47.5 ± 2 per second, a kcat ([1]; 150 nM dabigatran) of 50.1 ± 1.5 per second and a kcat ([1]; 200 nM dabigatran) of 49.3 ± 1.7 per second. It also gave a Km ([2]; 50 nM dabigatran) of 49.5 ± 3.3 µM, a kcat ([2]; 50 nM dabigatran) of 127.7 ± 0.8 per second and a Km ([2]; 100 nM dabigatran) of 71.6 ± 3.5 µM. For the same compound, the kcat ([2]; 100 nM dabigatran) was 126.6 ± 3.5 per second, the Km ([2]; 150 nM dabigatran) was 91.9 ± 4.9 µM and the kcat ([2]; 150 nM dabigatran) was 123.8 ± 2.9 per second. For the same compound, the Km ([2]; 200 nM dabigatran) was 126 ± 7 µM, the kcat ([2]; 200 nM dabigatran) was 130.1 ± 1.4 per second and the Ki ([3]; all human and mouse trypsin isoforms, read-out: Ki range) was 10 to 79 nM. The Ki ([3]; range over trypsin isoforms tested, read-out: Ki range, global fit analysis) was 10.3 to 78.9 nM, the Ki [3, 6] was 10 to 65 nM and the Ki [4] was 31.6 ± 2.6 nM. For the same compound, the Km ([4]; 50 nM dabigatran) was 20.6 ± 1.5 µM, the kcat ([4]; 50 nM dabigatran) was 90.4 ± 1 per second and the Km ([4]; 100 nM dabigatran) was 34.2 ± 4.1 µM. It also gave a kcat ([4]; 100 nM dabigatran) of 92.3 ± 1.6 per second, a Km ([4]; 150 nM dabigatran) of 46.3 ± 3 µM and a kcat ([4]; 150 nM dabigatran) of 88.9 ± 1.3 per second. It also gave a Km ([4]; 200 nM dabigatran) of 60.8 ± 4 µM, a kcat ([4]; 200 nM dabigatran) of 85.1 ± 7.2 per second and a Km ([5]; 50 nM dabigatran) of 19.8 ± 2.7 µM. It also gave a kcat ([5]; 50 nM dabigatran) of 75.8 ± 2 per second, a Km ([5]; 100 nM dabigatran) of 28.3 ± 2.8 µM and a kcat ([5]; 100 nM dabigatran) of 72.5 ± 2.6 per second. For the same compound, the Km ([5]; 150 nM dabigatran) was 46.1 ± 2.4 µM, the kcat ([5]; 150 nM dabigatran) was 78.4 ± 0.1 per second and the Km ([5]; 200 nM dabigatran) was 56.7 ± 7.3 µM. It also gave a kcat ([5]; 200 nM dabigatran) of 77.6 ± 2.5 per second, a Ki ([5]; Ki dabigatran, Global fit) of 35.8 ± 3.5 nM and a Ki ([5]; Ki dabigatran, Individual fit) of 28.4 ± 7.1 nM.
